Experimental data reported in patent US8962608B2, “Cycloalkylnitrile pyrazole carboxamides as janus kinase inhibitors” (Merck Sharp & Dohme Corp., priority 2011, dated 2015).

How the values were obtained:
[1] = target: JAK2 (recombinant purified GST-tagged catalytic domain) (Homo sapiens (Human), UniProt O60674); test: biochemical;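 also: biochemical JAK kinase assay with HTRF detection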
[2] = target: JAK1 (recombinant purified GST-tagged catalytic domain) (Homo sapiens (Human), UniProt P23458); test: biochemical;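 also: biochemical assay with HTRF read-out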
Chain of JAK1 (recombinant purified GST-tagged catalytic domain) (P23458 875-1153): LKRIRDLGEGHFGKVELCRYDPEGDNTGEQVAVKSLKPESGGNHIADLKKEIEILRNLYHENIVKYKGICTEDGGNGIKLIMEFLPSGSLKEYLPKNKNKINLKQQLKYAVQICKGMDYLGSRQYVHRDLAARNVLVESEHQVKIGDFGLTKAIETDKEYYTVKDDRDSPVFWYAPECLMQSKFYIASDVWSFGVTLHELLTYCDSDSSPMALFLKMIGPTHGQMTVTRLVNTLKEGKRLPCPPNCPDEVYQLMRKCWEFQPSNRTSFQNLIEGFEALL

Chain of JAK2 (recombinant purified GST-tagged catalytic domain) (O60674 849-1124): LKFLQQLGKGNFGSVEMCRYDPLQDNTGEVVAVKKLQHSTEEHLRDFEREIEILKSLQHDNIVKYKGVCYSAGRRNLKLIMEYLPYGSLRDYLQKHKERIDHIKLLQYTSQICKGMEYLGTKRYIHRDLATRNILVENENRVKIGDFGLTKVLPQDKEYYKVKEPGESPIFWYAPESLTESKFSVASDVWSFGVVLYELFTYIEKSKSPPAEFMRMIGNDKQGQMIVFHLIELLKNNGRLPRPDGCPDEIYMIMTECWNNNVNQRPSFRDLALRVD

SMILES	IC50 [1] [nM]	IC50 [2] [nM]
N#C[C@H]1CC[C@@H](O)CC1n1cc(C(N)=O)c(Nc2ccccc2)n1 (mixture of isomers) [Example 2-13, 1-[(1S,2S,5R and 1R,2R,5S)-2-cyano-5-hydroxycyclohexyl]-3-(phenylamino)-1H-pyrazole-4-carboxamide]	185	27
CN(CC(F)F)[C@H]1CC[C@H](n2cc(C(N)=O)c(Nc3ccc(S(=O)(=O)C(F)(F)F)cc3)n2)[C@@H](C#N)C1 (single isomer, unassigned) [Example 28-114, 1-{(1S,2S,4S or 1R,2R,4R)-2-cyano-4-[(2,2-difluoroethyl)(methyl)amino]cyclo-hexyl}-3-({4-[(trifluoro-methyl)sulfonyl]phenyl}amino)-1H-pyrazole-4-carboxamide]	29	3
N#C[C@H]1C[C@H](O)CC[C@@H]1n1cc(C(N)=O)c(Nc2ccc(Cl)c(Cl)c2)n1 (single isomer, unassigned) [Example 25-6, 1-[(1S,2S,4R or 1R,2R,4S)-2-cyano-4-hydroxycyclohexyl]-3-[(3,4-dichlorophenyl)amino]-1H-pyrazole-4-carboxamide]	20	3
N#C[C@H]1CCCC[C@@H]1n1cc(C(N)=O)c(Nc2cnc3ccc(Cl)cc3c2)n1 (single isomer, unassigned) [Example 17-60, 3-[(6-chloroquinolin-3-yl)amino]-1-[(1S,2S or 1R,2R)-2-cyanocyclohexyl]-1H-pyrazole-4-carboxamide]	23	6
N#C[C@H]1CCCC[C@@H]1n1cc(C(N)=O)c(Nc2ccc(S(=O)(=O)N3CCC4(CC3)OCCO4)cc2)n1 (single isomer, unassigned) [Example 17-92, 1-[(1R,2R or 1S,2S)-2-cyanocyclohexyl]-3-{[4-(1,4-dioxa-8-azaspiro[4.5]dec-8-ylsulfonyl)phenyl]amino}-1H-pyrazole-4-carboxamide]	3	0.9
N#C[C@H]1C[C@H](O)CCC1n1cc(C(N)=O)c(Nc2ccc(S(=O)(=O)C(F)F)cc2)n1 (mixture of isomers) [Example 14, 1-[(1S,2S,4R and 1R,2R,4S)-2-Cyano-4-hydroxycyclohexyl]-3-({4-[(difluoromethyl)sulfonyl]phenyl}amino)-1H-pyrazole-4-carboxamide]	3	0.32
N#C[C@H]1CCCCC1n1cc(C(N)=O)c(Nc2ccc(S(=O)(=O)CF)cc2)n1 (mixture of isomers) [Example 17-65, 1-[(1S,2S and 1R,2R)-2-cyanocyclohexyl]-3-({4-[(fluoromethyl)sulfonyl]phenyl}amino)-1H-pyrazole-4-carboxamide]	2	0.16
N#C[C@H]1C[C@H](O)CC[C@@H]1n1cc(C(N)=O)c(Nc2ccc(C(F)F)nc2)n1 (single isomer, unassigned) [Example 25-16, 1-[(1S,2S,4R or 1R,2R,4S)-2-cyano-4-hydroxycyclohexyl]-3-{[6-(difluoromethyl)pyridin-3-yl]amino}-1H-pyrazole-4-carboxamide]	10	3
N#C[C@H]1CCCC[C@@H]1n1cc(C(N)=O)c(Nc2ccnc(C(F)(F)F)c2)n1 (racemic) [Example 17-3, 1-[(1S,2S and 1R,2R)-2-Cyanocyclohexyl]-3-{[2-(trifluoromethyl)pyridin-4-yl]amino}-1H-pyrazole-4-carboxamide]	123	19
N#Cc1ccc(Nc2nn([C@H]3CCCC[C@@H]3C#N)cc2C(N)=O)cc1 (racemic) [Example 17-5, 1-[(1S,2S and 1R,2R)-2-cyanocyclohexyl]-3-[(4-cyanophenyl)amino]-1H-pyrazole-4-carboxamide]	9	1
N#C[C@H]1CCCC[C@@H]1n1cc(C(N)=O)c(Nc2ccc(F)c(F)c2)n1 (racemic) [Example 17-100, 1-[(1S,2S and 1R,2R)-2-cyanocyclohexyl]-3-[(3,4-difluorophenyl)amino]-1H-pyrazole-4-carboxamide]	34	4
N#C[C@H]1CCCC[C@@H]1n1cc(C(N)=O)c(Nc2ccc(S(=O)(=O)Nc3ccncc3)cc2)n1 (single isomer, unassigned) [Example 17-81, 1-[(1R,2R or 1S,2S)-2-cyanocyclohexyl]-3-{[4-(pyridin-4-ylsulfamoyl)phenyl]amino}-1H-pyrazole-4-carboxamide]	2	0.35
CN[C@H]1CCC(n2cc(C(N)=O)c(Nc3ccc(F)cc3)n2)[C@@H](C#N)C1 (mixture of isomers) [Example 27-4, 1-[(1S,2S,4S and 1R,2R,4R)-2-cyano-4-(methylamino)cyclohexyl]-3-[(4-fluorophenyl)amino]-1H-pyrazole-4-carboxamide]	56	1

The remaining lines, values ahead:

IC50 [1] [nM]	IC50 [2] [nM]	SMILES
425	47	CC(C)(C)NC(=O)[C@@H]1CC[C@@H](n2cc(C(N)=O)c(Nc3ccc(Cl)cc3)n2)[C@H](C#N)C1 (single isomer, unassigned) [Example 35-35, 1-[(1R,2R,4R or 1S,2S,4S)-4-(tert-butylcarbamoyl)-2-cyanocyclohexyl] 3-[(4-chlorophenyl)amino]-1H-pyrazole-4-carboxamide]
23	0.9	COCCN[C@H]1CCC(n2cc(C(N)=O)c(Nc3ccc(Cl)cc3)n2)[C@@H](C#N)C1 (single isomer, unassigned) [Example 28-236, 3-[(4-chlorophenyl)amino]-1-{(1S,2S,4S or 1R,2R,4R)-2-cyano-4-[(2-methoxyethyl)amino]cyclo-hexyl}-1H-pyrazole-4-carboxamide]
11	1	CN(CC1(C)COC1)[C@H]1CCC(n2cc(C(N)=O)c(Nc3ccc(Cl)cc3)n2)[C@@H](C#N)C1 (single isomer, unassigned) [Example 28-219, 3-[(4-chlorophenyl)amino]-1-[(1S,2S,4S or 1R,2R,4R)-2-cyano-4-{methyl[(3-methyloxetan-3-yl)methyl]amino}cyclohexyl]-1H-pyrazole-4-carboxamide]
88	7	N#C[C@H]1C[C@H](OC(=O)NC2CCCCC2)CCC1n1cc(C(N)=O)c(Nc2ccc(F)cc2)n1 (mixture of isomers) [Example 34-5, (1R,3S,4S and 1S,3R,4R)-4-{4-carbamoyl-3-[(4-fluorophenyl)amino]-1H-pyrazol-1-yl}-3-cyanocyclohexyl cyclohexylcarbamate]
13	1	CN(C)S(=O)(=O)CCNC1CC[C@H](n2cc(C(N)=O)c(Nc3ccc(S(=O)(=O)C(F)(F)F)cc3)n2)[C@@H](C#N)C1 (single isomer, unassigned) [Example 28-154, 1-[(1S,2S or 1R,2R)-2-cyano-4-{[2-(dimethylsulfamoyl)ethyl]a-mino}cyclohexyl]-3-({4-[(trifluoromethyl)sulfonyl]phen-yl}amino)-1H-pyrazole-4-carboxamide]
106	9	CN(C1COC1)[C@H]1CC[C@@H](n2cc(C(N)=O)c(Nc3ccc(C(F)(F)F)cc3)n2)[C@H](C#N)C1 (single isomer, unassigned) [Example 30-1, 1-{(1R,2R,4S or 1S,2S,4R)-2-Cyano-4-[methyl(oxetan-3-yl)amino]cyclohexyl}-3-{[4-(trifluoromethyl)phenyl]amino}-1H-pyrazole-4-carboxamide]
49	0.4	CC(C)(O)C1CN([C@@H]2CC[C@H](n3cc(C(N)=O)c(Nc4ccc(C(F)(F)F)cc4)n3)[C@@H](C#N)C2)C1 (single isomer, unassigned) [Example 28-7, 1-{(1S,2S,4R or 1R,2R,4S)-2-cyano-4-[3-(1-hydroxy-1-methylethyl)azetidin-1-yl]cyclohexyl}-3-{[4-(trifluoro-methyl)phenyl]amino}-1H-pyrazole-4-carboxamide]
36	0.5	N#C[C@H]1C[C@@H](N2CC3(CCC3)C2)CC[C@@H]1n1cc(C(N)=O)c(Nc2ccnc(F)c2)n1 (single isomer, unassigned) [Example 28-133, 1-[(1S,2S,4S or 1R,2R,4R)-4-(2-azaspiro[3.3]hept-2-yl)-2-cyanocyclohexyl]-3-[(2-fluoropyridin-4-yl)amino]-1H-pyrazole-4-carboxamide]
46	12	CN([C@@H]1CC[C@H](n2cc(C(N)=O)c(Nc3ccc(Cl)cc3)n2)[C@@H](C#N)C1)S(C)(=O)=O (racemic) [Example 38-5, 3-[(4-chlorophenyl)amino]-1-{(1S,2S,4R and 1R,2R,4S)-2-cyano-4-[methyl(methylsulfonyl)amino]cyclohexyl}-1H-pyrazole-4-carboxamide]
295	37	N#C[C@H]1C[C@@H](C(=O)NC2CC2)CC[C@@H]1n1cc(C(N)=O)c(Nc2ccc(Cl)cc2)n1 (single isomer, unassigned) [Example 35-23, 3-[(4-chlorophenyl)amino]-1-[(1S,2S,4S or 1R,2R,4R)-2-cyano-4-(cyclopropylcarbamoyl)cyclohexyl]-1H-pyrazole-4-carboxamide]
64	3	N#C[C@H]1C[C@@H](NCC2CC2)CC[C@@H]1n1cc(C(N)=O)c(Nc2ccc(C(F)(F)F)cc2)n1 (single isomer, unassigned) [Example 28-10, 1-{(1S,2S,4S or 1R,2R,4R)-2-cyano-4-[(cyclopropyl-methyl)amino]cyclohexyl}-3-{[4-(trifluoromethyl)phenyl]amino}-1H-pyrazole-4-carboxamide]
13	1	N#C[C@H]1C[C@@H](N2CC(F)C2)CC[C@@H]1n1cc(C(N)=O)c(Nc2ccc(S(=O)(=O)C(F)(F)F)cc2)n1 (single isomer, unassigned) [Example 28-113, 1-[(1S,2S,4S or 1R,2R,4R)-2-cyano-4-(3-fluoroazetidin-1-yl)cyclohexyl]-3-({4-[(trifluoro-methyl)sulfonyl]phenyl}amino)-1H-pyrazole-4-carboxamide]
